The supplement of paper PMC10307832

Legend:
Test in all cases: relative viability (nuclei count vs DMSO), 5 days (fraction); higher = more cells survive
[1] = compound: CC1=C(CC(=O)O)c2cc(F)ccc2/C1=C\c1ccc([S+](C)[O-])cc1 [Sulindac] + COc1cc2c(Oc3ccc(NC(=O)C4(C(=O)Nc5ccc(F)cc5)CC4)cc3F)ccnc2cc1OCCCN1CCOCC1 [Foretinib] (partner 0.25 µM)
Summary of the method: (§1)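 The day after seeding in 1536-well plates, lung cancer cell lines were treated by pin tool with a single drug, or with a fixed anchor-drug dose together with five library-drug doses (not always all listed) in √10 steps. After 5 days, a combined fix-and-stain solution (final 0.05% Triton X-100, 1% formaldehyde, 1 ug/ml Hoechst) was added. Nuclei counted on 4× images gave relative viability as treated counts over vehicle counts, reported as the median of duplicate plates.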

[2] = compound: O=c1[nH]cc(F)c(=O)[nH]1 [5-Fluorouracil] + COc1cc2c(Oc3ccc(NC(=O)C4(C(=O)Nc5ccc(F)cc5)CC4)cc3F)ccnc2cc1OCCCN1CCOCC1 [Foretinib] (partner 0.25 µM)
Summary of the method: as §1

[3] = compound: CC1=C(CC(=O)O)c2cc(F)ccc2/C1=C\c1ccc([S+](C)[O-])cc1 [Sulindac] + CC(=O)Nc1cccc(-n2c(=O)n(C3CC3)c(=O)c3c(Nc4ccc(I)cc4F)n(C)c(=O)c(C)c32)c1 [Trametinib] (partner 0.02 µM)
Summary of the method: as §1

[4] = compound: CC1=C(CC(=O)O)c2cc(F)ccc2/C1=C\c1ccc([S+](C)[O-])cc1 [Sulindac] + Cc1cc(Nc2cc(N3CCN(C)CC3)nc(Sc3ccc(NC(=O)C4CC4)cc3)n2)n[nH]1 [Tozasertib] (partner 0.1 µM)
Summary of the method: as §1

Cell Line	relative viability ([1]; first compound 0.08 µM)	relative viability ([1]; first compound 0.253 µM)	relative viability ([1]; first compound 0.8 µM)	relative viability ([1]; first compound 2.53 µM)	relative viability ([1]; first compound 8 µM)	relative viability ([2]; first compound 0.02 µM)	relative viability ([2]; first compound 0.2 µM)	relative viability ([2]; first compound 0.6325 µM)	relative viability ([2]; first compound 2 µM)	relative viability ([3]; first compound 0.08 µM)	relative viability ([3]; first compound 0.253 µM)	relative viability ([3]; first compound 0.8 µM)	relative viability ([3]; first compound 2.53 µM)	relative viability ([3]; first compound 8 µM)	relative viability ([4]; first compound 0.08 µM)	relative viability ([4]; first compound 0.253 µM)	relative viability ([4]; first compound 0.8 µM)	relative viability ([4]; first compound 2.53 µM)	relative viability ([4]; first compound 8 µM)
NCI-H2085	0.763	0.987	0.882	0.914	1.08	1.02	0.899	0.93	0.592	0.513	0.569	0.576	0.435	0.384	0.789	0.842	0.829	0.797	0.807
PC-3 [JPC-3]	1.12	1.11	1.14	1.09	1.05	1.06	1.03	0.881	0.703	0.668	0.659	0.701	0.695	0.725	0.982	0.984	0.828	0.868	0.878
NCI-H838	1.05	1.19	1.03	1.06	1.22	1	1.06	0.523	0.317	0.608	0.559	0.456	0.527	0.584	0.283	0.269	0.253	0.248	0.218
NCI-H1755	0.976	0.974	0.848	0.916	1.03	0.909	0.854	0.365	0.319	0.886	0.751	0.775	0.812	0.89	0.52	0.586	0.573	0.593	0.694
NCI-H1650	1.05	1.21	–	1.24	1.32	0.963	1.09	0.776	0.37	0.599	0.794	0.445	0.491	0.766	0.456	0.381	–	0.287	0.426
NCI-H650	0.926	1	0.997	0.994	1.19	0.976	0.617	0.356	0.308	1.03	1.03	0.955	1	1.07	0.76	0.744	0.71	0.607	0.757
NCI-H1944	0.962	0.874	0.822	0.974	1.03	0.834	0.702	0.314	0.184	0.476	0.418	0.328	0.421	0.487	0.258	0.263	0.254	0.247	0.259
LK-2	1.73	1.45	–	–	1.21	1.6	1.02	1.13	0.568	0.854	0.746	0.705	0.617	0.944	0.186	0.178	–	–	0.189
HCC-15	1.19	1.02	0.905	0.978	1.33	1.13	0.961	0.583	0.351	0.415	0.395	0.375	0.347	0.283	0.29	0.423	0.318	0.421	0.37
PC-14	1.07	1.14	0.671	1.04	1.01	1.1	0.987	0.757	0.58	0.908	0.772	0.745	0.779	1.01	0.605	0.659	0.538	0.575	0.685
HOP-62	1.18	1.1	–	1.23	1.25	1.14	1.12	1.22	0.95	0.411	0.404	0.34	0.411	0.388	0.409	0.41	–	0.386	0.426
NCI-H322M	0.992	0.996	0.882	0.954	1	0.976	0.84	0.749	0.446	0.474	0.506	0.48	0.5	0.603	0.483	0.485	0.47	0.51	0.499
NCI-H1395	0.845	1.02	0.949	0.906	1.1	0.827	1.14	1.05	0.987	0.966	0.999	0.939	0.949	1.17	0.694	0.732	0.776	0.733	0.866
NCI-H661	1.12	1.05	0.999	1.1	1.03	1.03	–	1.02	0.972	0.635	0.608	0.487	0.669	0.654	0.351	0.336	0.362	0.362	0.38
NCI-H727	0.789	0.93	–	0.898	0.826	0.791	0.79	0.903	0.656	0.362	0.414	0.378	0.417	0.35	0.609	1.78	–	0.451	0.795
NCI-H1734	0.864	0.956	–	1.03	0.958	0.859	0.881	0.756	0.46	0.673	0.725	0.575	0.693	0.832	0.221	0.25	–	0.295	0.286
EKVX	0.666	0.942	0.421	0.683	0.995	0.707	0.321	0.177	0.149	0.299	0.34	0.292	0.335	0.333	0.417	0.334	0.345	0.434	0.407
NCI-H596	0.796	1.05	0.928	0.97	0.892	0.76	0.794	0.572	0.488	0.892	0.827	–	0.981	0.875	0.877	0.939	0.913	0.946	1

Cell Line	relative viability ([1]; first compound 0.08 µM)	relative viability ([1]; first compound 0.253 µM)	relative viability ([1]; first compound 0.8 µM)	relative viability ([1]; first compound 2.53 µM)	relative viability ([1]; first compound 8 µM)	relative viability ([2]; first compound 0.02 µM)	relative viability ([2]; first compound 0.2 µM)	relative viability ([2]; first compound 0.6325 µM)	relative viability ([2]; first compound 2 µM)	relative viability ([3]; first compound 0.08 µM)	relative viability ([3]; first compound 0.253 µM)	relative viability ([3]; first compound 0.8 µM)	relative viability ([3]; first compound 2.53 µM)	relative viability ([3]; first compound 8 µM)	relative viability ([4]; first compound 0.08 µM)	relative viability ([4]; first compound 0.253 µM)	relative viability ([4]; first compound 0.8 µM)	relative viability ([4]; first compound 2.53 µM)	relative viability ([4]; first compound 8 µM)
LCLC-97TM1	0.939	0.992	0.804	0.803	0.962	0.941	0.989	0.941	0.671	0.25	0.228	0.213	0.171	0.214	0.231	0.289	0.217	0.163	0.247
COR-L23	1.18	1.03	0.88	0.982	1.26	0.982	0.886	0.522	0.289	0.653	0.671	0.357	0.548	0.725	0.591	0.242	0.179	0.186	0.238
NCI-H1355	1.16	1.04	–	1.07	0.987	0.883	0.681	0.338	0.256	0.389	0.462	0.312	0.43	0.42	0.544	0.607	–	0.502	0.57
EPLC-272H	0.669	0.763	–	0.711	0.745	0.665	0.446	0.296	0.163	0.195	–	0.266	0.245	0.279	0.152	0.25	–	0.25	0.408
ChaGo-K-1	1.05	0.999	0.925	0.991	0.926	0.975	0.874	0.724	0.557	1.05	0.963	0.817	0.914	0.903	0.228	0.197	0.24	0.217	0.241
NCI-H1651	0.899	0.848	–	0.764	0.88	0.797	0.835	0.537	0.509	0.797	0.844	0.733	0.801	0.845	0.755	0.66	–	0.686	0.666
SW 1573	1.19	1.17	0.776	0.788	0.955	0.867	1.11	0.784	0.641	0.601	0.645	0.496	0.371	0.75	0.183	0.144	–	0.172	0.163
NCI-H460	1.3	1.12	0.667	1.02	1.08	1.02	0.73	0.156	0.0731	0.178	0.195	0.114	0.366	0.132	0.639	0.439	0.667	0.46	0.314
SK-LU-1	0.981	0.977	0.993	0.751	0.955	0.819	0.902	0.75	0.681	0.657	0.486	0.435	0.398	0.529	0.286	0.347	0.342	0.288	0.406
LOU-NH91	0.859	0.964	0.876	0.935	1.11	0.966	0.995	0.731	0.315	0.771	0.826	0.687	0.785	0.836	0.634	0.662	0.636	0.636	0.744
RERF-LC-KJ	1.03	0.934	0.65	0.856	0.927	0.901	0.938	0.831	0.823	0.99	0.928	0.778	0.877	0.933	0.569	0.56	0.521	0.307	0.568
NCI-H2126	1.2	1.18	1.06	1.01	1.14	1.32	0.592	0.399	0.361	0.674	0.568	0.553	0.51	0.619	0.887	0.905	0.895	0.754	0.934
SW 900	–	0.645	–	0.948	1.11	0.629	0.799	0.729	0.569	0.847	0.982	–	–	0.945	–	0.516	–	0.462	0.585
LU99A	0.87	0.808	0.934	0.791	0.926	0.752	0.851	0.693	0.488	0.587	0.585	0.482	0.503	0.687	0.265	0.266	0.285	0.252	0.286
BEN	0.834	0.693	0.57	0.569	0.771	0.63	0.609	0.548	0.587	0.975	1.03	0.934	1.02	1.13	0.46	0.449	0.519	0.462	0.566
NCI-H1666	1.01	1.02	0.908	0.975	1.13	0.969	0.672	0.466	0.405	0.895	0.889	0.775	0.924	0.93	0.624	0.627	0.593	0.562	0.648
NCI-H1993	0.728	0.724	0.751	0.761	0.752	0.741	0.728	0.706	0.667	0.472	0.569	0.453	0.444	0.585	0.597	0.629	0.514	0.651	0.598
